Results on three molecules are retold here after US20220241310A1, “THIARABINE- AND THIARABINE PRODRUG-BASED TREATMENTS” (Southern Research Institute, priority 2019, published 2022).

SMILES strings stand for the structures.

The test system of one assay is OVCAR-3. The assay can be described thus: IC50 in OVCAR-3 tumor cell model. The format is cell-based. To be noted: human ovarian cancer model. From the text: (§1) Representative IC50 values of thiarabine and related prodrugs tested in two tumor cell models, a humanized murine colorectal model MC38^hPDL-1 and a human ovarian cancer model OVCAR-3, are shown in Table 1 below.

The subject of assay [1] is MC38^hPDL-1 colon tumor cells. The assay can be described thus: MC38^hPDL-1 tumor response to mono- and combination-therapy in mice. The class given is in vivo, C57BL/6^hPD-1/hPD-L1 mice. To be noted: combination with Keytruda; subcutaneous MC38^hPDL-1 tumor; FIG. 1A/1B. On the procedure: A total of 32 C57BL/6^hPD-1/hPD-L1 mice, male and female, were injected subcutaneously with five hundred thousand (5×10^5) MC38^hPDL-1 colon tumor cells in the right flank at a volume of 0.1 mL. Innoculation day was marked as Day 0. Tumor measurements were taken biweekly for the duration of the study. Tumor weights (mg) were calculated using the equation for an ellipsoid sphere: (l×w^2)/2=mm^3, where l and w refer to the larger and smaller dimensions collected at each measurement and assuming unit density (1 mm^3=1 mg). Target tumor weight for initiation of treatment was approximately 75 to 144 mg for a target group mean tumor weight of approximately 110 mg. The animals on study were randomly assigned to four groups to contain two males and six females. Dosing began on day 13 of the study. Re-challenge of MC38^1-1 in the opposite flank of tumor-free mice from the Keytruda and combination groups occurred on day 31 of the study and mice were monitored for tumor growth for the duration of the study.
Thiarabine: The 500 mg vial was reconstituted with 4.6 mL of saline (0.9% Sodium chloride) to yield a 100 mg/mL stock solution. Each day of dosing, the 100 mg/mL solution was diluted to […] with saline. The dose concentration was 10 mL/kg with a dose volume of 0.1 mL for dose of 30 mg/kg. Mice were dosed IP Q2Dx10. […]

For a further assay, the system named is MC38^hPDL-1. The assay can be described thus: IC50 in MC38^hPDL-1 tumor cell model. To be noted: Mus musculus, MC38-hPD-L1; humanized murine colorectal model; read-out: MC38^huPD=L1 (IC50 μM). The format is cell-based.
Description: as §1

As for `CCC(CC)COC(=O)[C@H](C)NP(=O)(OC[C@H]1S[C@@H](n2ccc(N)nc2=O)[C@@H](O)[C@@H]1O)Oc1ccccc1` (stereo partly drawn) [SRI-44340, ethylbutyl ((((2R,3S,4S,5R)-5-(4-amino-2-oxopyrimidin-1(2H)-yl)-3,4-dihydroxytetrahydrothiophen-2-yl)methoxy)(phenoxy)phosphoryl)-1-alaninate], in the assay on OVCAR-3, half-maximal inhibition (IC50) was put at 0.65 µM.

As for `Nc1ccn([C@@H]2S[C@H](CO)[C@@H](O)[C@@H]2O)c(=O)n1` [Thiarabine], in assay [1], the “tumor volume over time” value is reported as “total tumor regression”. In addition, the IC50 (in general, the concentration needed to halve the response being measured) with MC38^hPDL-1 worked out at 2.71 µM; in the assay on OVCAR-3 it was 1.13 µM.

For `CC(C)OC(=O)[C@H](C)NP(=O)(OC[C@H]1S[C@@H](n2ccc(N)nc2=O)[C@@H](O)[C@@H]1O)Oc1ccccc1` (single isomer, unassigned) [SRI-41302], the “tumor volume over time” value in assay [1] is given as “total tumor regression”. The IC50 with MC38^hPDL-1 was 15.8 µM; with OVCAR-3, 1.25 µM.
